For 30 compounds, IC50 and inhibition results are on record in US8575156B2, “Cyclic inhibitors of 11β-hydroxysteroid dehydrogenase 1” (Vitae Pharmaceuticals, Inc., priority 2007, dated 2013).

The assay deals with 11β-HSD1 (Homo sapiens, UniProt P28845). The assay can be described thus: biochemical. The conditions noted are these: for IC50: IC50 Range, Biological Test Example 1, microsomes from CHO cells overexpressing human 11β-HSD1; for inhibition at 0.1111 µM: read-out: Average % inhibition at 111.1 nM, Biological Test Example 1, 111.1 nM compound.
Chain of 11β-HSD1 (P28845 whole entry): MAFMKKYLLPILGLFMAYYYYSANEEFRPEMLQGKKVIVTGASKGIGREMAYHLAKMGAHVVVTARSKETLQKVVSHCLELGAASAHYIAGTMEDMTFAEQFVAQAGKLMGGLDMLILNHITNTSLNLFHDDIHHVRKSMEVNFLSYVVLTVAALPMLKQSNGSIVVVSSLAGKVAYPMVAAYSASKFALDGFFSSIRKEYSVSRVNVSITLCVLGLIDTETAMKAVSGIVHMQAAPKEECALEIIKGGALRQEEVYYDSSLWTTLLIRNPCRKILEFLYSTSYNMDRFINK
The mark [1] stands for this setting: read-out: Average % inhibition at 100 nM, Biological Test Example 1, 100 nM.
Setting [2] is: read-out: Average % inhibition at 100 nM, Biological Test Example 1, 100 nM compound.

Like-named read-outs stand apart in the source and are kept apart here.

For the compound `C[C@@H](c1ccc(Br)cc1)N1CC[C@@](C)(c2ccc(F)cc2)OC1=O` (single isomer, unassigned) [EXAMPLE 518 Isomer 1], the IC50 is less than 100 nM. Besides, the inhibition at 0.1 µM under setting [1] was 92.2%.
The compound `C[C@@H](c1ccc(Br)cc1)N1CC[C@](CC(C)(C)N)(c2ccc(F)cc2)OC1=O` [EXAMPLE 621, (S)-6-(2-amino-2-methylpropyl)-3-((S)-1-(4-bromophenyl)ethyl)-6-(4-fluorophenyl)-1,3-oxazinan-2-one] yielded an IC50 of less than 100 nM. Also, the inhibition at 0.1 µM under setting [1] was 78.3%.
As to `C[C@@H](c1ccc(-c2ccc(F)cc2)cc1)N1CC[C@](CCN2CC[C@@H](F)C2)(c2ccc(F)cc2)OC1=O` [EXAMPLE 466, (R)-3-((S)-1-(4′-fluorobiphenyl-4-yl)ethyl)-6-(4-fluorophenyl)-6-(2-((R)-3-fluoropyrrolidin-1-yl)ethyl)-1,3-oxazinan-2-one], the IC50 is less than 100 nM. Further, the inhibition at 0.1 µM under setting [1] turned out to be 55.3%.
`C[C@@H](c1ccc(Cl)cc1)N1CC[C@](CCCNS(C)(=O)=O)(c2ccccc2)OC1=O` [EXAMPLE 404, N-(3-((R)-3-((S)-1-(4-chlorophenyl)ethyl)-2-oxo-6-phenyl-1,3-oxazinan-6-yl)propyl)methanesulfonamide]: the IC50 was less than 100 nM. In addition, the inhibition at 0.1 µM under setting [1] came to 91.2%.
Take `C=CCC1(c2ccc(F)cc2)CCN(C(C)c2ccc(-c3ccc(F)cc3F)cn2)C(=O)O1` (stereo not drawn) [EXAMPLE 131, 6-allyl-3-(1-(5-(2,4-difluorophenyl)pyridin-2-yl)ethyl)-6-(4-fluorophenyl)-1,3-oxazinan-2-one]: the IC50 was more than 1000 nM and the inhibition at 0.1111 µM turned out to be 11.3%. For the same compound, under setting [2], the inhibition at 0.1 µM came out at 6.6%.
`C[C@@H](c1ccc(-c2ccc(F)cc2)cc1)N1CC[C@@](CCCO)(c2cccs2)OC1=O` [EXAMPLE 166, (S)-3-((S)-1-(4′-fluorobiphenyl-4-yl)ethyl)-6-(3-hydroxypropyl)-6-(thiophen-2-yl)-1,3-oxazinan-2-one]: the IC50 was less than 100 nM and the inhibition at 0.1111 µM is 81.8%.
The compound `C[C@@H](c1ccc(Cl)cc1)N1CC[C@](CCC(N)=O)(c2ccccc2)OC1=O` [EXAMPLE 287, 3-((R)-3-((S)-1-(4-chlorophenyl)ethyl)-2-oxo-6-phenyl-1,3-oxazinan-6-yl)propanamide] gave an IC50 of less than 100 nM. Moreover, the inhibition at 0.1 µM under setting [2] worked out at 89.8%.
Turning to `C[C@@H](c1ccccc1)N1CCC(C)(c2ccccc2)OC1=O` (single isomer, unassigned) [EXAMPLE 82 Isomer 1], the IC50 was less than 100 nM and the inhibition at 0.1111 µM is 87.6%.
Turning to `C[C@@H](c1ccc(Br)cc1)N1CC[C@](CCN(C)S(C)(=O)=O)(c2ccccc2)OC1=O` [EXAMPLE 529, N-(2-((S)-3-((S)-1-(4-bromophenyl)ethyl)-2-oxo-6-phenyl-1,3-oxazinan-6-yl)ethyl)-N-methylmethanesulfonamide], the IC50 is less than 100 nM. In addition, the inhibition at 0.1 µM under setting [1] was 93.7%.
As for `C[C@@H](c1cccc(C(F)(F)F)c1)N1CC[C@](CCCO)(c2ccc(F)cc2)OC1=O` [EXAMPLE 293, (R)-6-(4-fluorophenyl)-6-(3-hydroxypropyl)-3-((S)-1-(3-(trifluoromethyl)phenyl)ethyl)-1,3-oxazinan-2-one], the IC50 was less than 100 nM. Moreover, the inhibition at 0.1 µM under setting [2] is 94%.
As to `C[C@@H](c1cccc(Br)c1)N1CC[C@](CCCNS(C)(=O)=O)(c2ccc(F)cc2)OC1=O` [EXAMPLE 359, N-(3-((R)-3-((S)-1-(3-bromophenyl)ethyl)-6-(4-fluorophenyl)-2-oxo-1,3-oxazinan-6-yl)propyl)methanesulfonamide], the IC50 is less than 100 nM. Besides, under setting [1], the inhibition at 0.1 µM stood at 67.5%.
In turn, `C[C@@H](c1ccc(Br)cc1)N1CC[C@](CCC(N)=O)(c2ccc(F)cc2F)OC1=O` (single isomer, unassigned) [EXAMPLE 504 Isomer 2] displayed an IC50 of less than 100 nM. Further, the inhibition at 0.1 µM under setting [1] stood at 94.4%.
In the same order, the values of `C[C@@H](c1ccc(Cl)cc1)N1CC[C@](CCO)(c2ccc(F)cc2)OC1=O` [EXAMPLE 380, (S)-3-((S)-1-(4-chlorophenyl)ethyl)-6-(4-fluorophenyl)-6-(2-hydroxyethyl)-1,3-oxazinan-2-one] are less than 100 nM and 97.2%.
In the same order, the values of `O=C1OC(CCCO)(c2ccc(F)cc2)CCN1Cc1c(F)cccc1F` (stereo not drawn) [EXAMPLE 348, 3-(2,6-difluorobenzyl)-6-(4-fluorophenyl)-6-(3-hydroxypropyl)-1,3-oxazinan-2-one] are less than 100 nM and 48.9%.
`CC(O)C[C@]1(c2ccc(F)cc2)CCN([C@@H](C)c2ccc(Br)cc2)C(=O)O1` (single isomer, unassigned) [EXAMPLE 371 Isomer 1] displayed an IC50 of less than 100 nM. Also, the inhibition at 0.1 µM under setting [1] stood at 98.4%.
In the same order, the values of `Cc1ccc([C@H](C)N2CC[C@](CCCO)(c3ccc(F)cc3)OC2=O)cn1` [EXAMPLE 367, (R)-6-(4-fluorophenyl)-6-(3-hydroxypropyl)-3-((S)-1-(6-methylpyridin-3-yl)ethyl)-1,3-oxazinan-2-one] are less than 100 nM and 44.8%.
With `O=C1OC(CCO)(c2ccccc2)CCN1c1cccc(-c2ccc(F)cc2Cl)c1` (stereo not drawn) [EXAMPLE 68, 3-(2′-chloro-4′-fluorobiphenyl-3-yl)-6-(2-hydroxyethyl)-6-phenyl-1,3-oxazinan-2-one], the IC50 is less than 100 nM and the inhibition at 0.1111 µM was found to be 92.9%. The inhibition at 0.1 µM under setting [2] was determined as 92%.
`O=C(OCc1ccccc1)N1CCC[C@H](N2CC[C@](CCCO)(c3ccc(F)cc3)OC2=O)C1` [EXAMPLE 340, (S)-benzyl 3-((R)-6-(4-fluorophenyl)-6-(3-hydroxypropyl)-2-oxo-1,3-oxazinan-3-yl)piperidine-1-carboxylate] gave an IC50 of less than 100 nM. For the same compound, the inhibition at 0.1 µM (read-out: Average % inhibition at 100 nM) came to 75.9%.
In turn, `CC(O)C[C@]1(c2ccccc2)CCN([C@@H](C)c2ccc(-c3ccc(F)cc3F)cc2)C(=O)O1` (stereo partly drawn) [EXAMPLE 170, (6S)-3-((S)-1-(2′,4′-difluorobiphenyl-4-yl)ethyl)-6-(2-hydroxypropyl)-6-phenyl-1,3-oxazinan-2-one] displayed an IC50 of less than 100 nM. Also, under setting [2], the inhibition at 0.1 µM was found to be 97%.
`C[C@@H](C1CCCCC1)N1CC[C@](CCNS(C)(=O)=O)(c2ccc(F)cc2)OC1=O` [EXAMPLE 318, N-(2-((S)-3-((S)-1-cyclohexylethyl)-6-(4-fluorophenyl)-2-oxo-1,3-oxazinan-6-yl)ethyl)methanesulfonamide] yielded an IC50 of less than 100 nM. In addition, the inhibition at 0.1 µM under setting [1] turned out to be 83.8%.
`C[C@@H](c1cccc(O)c1)N1CCC(C)(c2ccccc2)OC1=O` (stereo partly drawn) [EXAMPLE 89, 3-((S)-1-(3-hydroxyphenyl)ethyl)-6-methyl-6-phenyl-1,3-oxazinan-2-one]: the IC50 was less than 100 nM and the inhibition at 0.1111 µM came out at 71.4%.
Compound `CCOC(=O)NCC[C@]1(c2ccc(F)cc2)CCN([C@@H](C)c2ccc(Br)cc2)C(=O)O1` [EXAMPLE 620, ethyl 2-((R)-3-((S)-1-(4-bromophenyl)ethyl)-6-(4-fluorophenyl)-2-oxo-1,3-oxazinan-6-yl)ethylcarbamate] returned an IC50 of less than 100 nM. The inhibition at 0.1 µM under setting [1] turned out to be 68.7%.
In turn, `C[C@@H](c1ccc(-c2ccc(F)cc2)cc1)N1CC[C@](CCCO)(c2cccs2)OC1=O` [EXAMPLE 232, (R)-3-((S)-1-(4′-fluorobiphenyl-4-yl)ethyl)-6-(3-hydroxypropyl)-6-(thiophen-2-yl)-1,3-oxazinan-2-one] returned an IC50 of less than 100 nM. Further, the inhibition at 0.1 µM under setting [2] worked out at 96.9%.
Turning to `O=C1OC(CCO)(c2ccccc2F)CCN1c1ccc(F)c(-c2ccc(F)cc2)c1` (stereo not drawn) [EXAMPLE 67, 3-(4′,6-difluorobiphenyl-3-yl)-6-(2-fluorophenyl)-6-(2-hydroxyethyl)-1,3-oxazinan-2-one], the IC50 was less than 100 nM and the inhibition at 0.1111 µM worked out at 96.6%. The inhibition at 0.1 µM under setting [2] was determined as 93.1%.
The compound `C[C@@H](c1ccc(-c2ccc(F)cc2)cc1)N1CC[C@](CCN2CCNC(=O)C2)(c2ccc(F)cc2)OC1=O` [EXAMPLE 467, (R)-3-((S)-1-(4′-fluorobiphenyl-4-yl)ethyl)-6-(4-fluorophenyl)-6-(2-(3-oxopiperazin-1-yl)ethyl)-1,3-oxazinan-2-one] registered an IC50 of less than 100 nM. Further, under setting [1], the inhibition at 0.1 µM is 81.2%.
With `C=CC[C@]1(c2ccc(F)cc2)CCN([C@@H](C)c2ccc(C(C)(C)O)cc2)C(=O)O1` [EXAMPLE 156, (R)-6-allyl-6-(4-fluorophenyl)-3-((S)-1-(4-(2-hydroxypropan-2-yl)phenyl)ethyl)-1,3-oxazinan-2-one], the IC50 is less than 100 nM and the inhibition at 0.1111 µM is 93.8%.
Regarding `C[C@@H](c1ccc(Br)cc1)N1CC[C@](CC(C)(C)C(N)=O)(c2ccc(F)cc2)OC1=O` [EXAMPLE 522, 3-((R)-3-((S)-1-(4-bromophenyl)ethyl)-6-(4-fluorophenyl)-2-oxo-1,3-oxazinan-6-yl)-2,2-dimethylpropanamide], the IC50 was less than 100 nM. Moreover, the inhibition at 0.1 µM under setting [1] turned out to be 97.5%.
As to `C[C@@H](c1ccc(Br)cc1)N1CC[C@](CCN2CCC2)(c2ccc(F)cc2)OC1=O` [EXAMPLE 374, (R)-6-(2-(azetidin-1-yl)ethyl)-3-((S)-1-(4-bromophenyl)ethyl)-6-(4-fluorophenyl)-1,3-oxazinan-2-one], the IC50 is less than 100 nM. Besides, the inhibition at 0.1 µM under setting [1] turned out to be 52.2%.
In the same order, the values of `CC(O)CC[C@]1(c2ccc(F)cc2)CCN([C@@H](C)c2ccc(F)cc2)C(=O)O1` (single isomer, unassigned) [EXAMPLE 411 Isomer 1] are less than 100 nM and 88.7%.
Turning to `O=C1OC(CCO)(c2ccccc2F)CCN1c1ccc(F)c(-c2ccc(F)cc2F)c1` (stereo not drawn) [EXAMPLE 106, 6-(2-fluorophenyl)-6-(2-hydroxyethyl)-3-(2′,4′,6-trifluorobiphenyl-3-yl)-1,3-oxazinan-2-one], the IC50 is less than 100 nM and the inhibition at 0.1111 µM came out at 88.7%.
